Source: patent US20220089575A1, “FARNESOID X RECEPTOR AGONISTS AND USES THEREOF” (Metacrine, Inc., priority 2017, published 2022)

What follows are molecules tested against T1, hFXR (Homo sapiens, UniProt Q96RI1) (assay: In Vitro FXR Assay (TK): TK-ECRE-luc reporter in transfected CV-1 cells). Conditions: 18 hrs, luminescence, maximum efficacy of <25% of the Fexarmine control classified as '+'.
T1 construct: expressed in transfected cells; host or cells: CV-1 cells
T1 sequence (Q96RI1 1-486): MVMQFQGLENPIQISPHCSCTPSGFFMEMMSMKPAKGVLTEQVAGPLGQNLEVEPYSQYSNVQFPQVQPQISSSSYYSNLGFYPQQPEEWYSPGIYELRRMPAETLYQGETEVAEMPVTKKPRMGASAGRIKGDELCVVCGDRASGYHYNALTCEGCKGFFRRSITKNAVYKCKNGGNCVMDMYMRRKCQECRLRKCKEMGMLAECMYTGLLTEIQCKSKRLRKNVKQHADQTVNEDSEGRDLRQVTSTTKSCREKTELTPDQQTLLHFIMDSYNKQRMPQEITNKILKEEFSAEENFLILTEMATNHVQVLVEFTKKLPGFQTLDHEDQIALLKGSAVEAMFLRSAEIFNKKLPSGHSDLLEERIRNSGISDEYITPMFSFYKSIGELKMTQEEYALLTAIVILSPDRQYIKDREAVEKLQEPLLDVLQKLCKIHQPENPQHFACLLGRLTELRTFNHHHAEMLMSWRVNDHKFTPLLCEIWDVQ
T1 sequence (P19793 1-462 partner): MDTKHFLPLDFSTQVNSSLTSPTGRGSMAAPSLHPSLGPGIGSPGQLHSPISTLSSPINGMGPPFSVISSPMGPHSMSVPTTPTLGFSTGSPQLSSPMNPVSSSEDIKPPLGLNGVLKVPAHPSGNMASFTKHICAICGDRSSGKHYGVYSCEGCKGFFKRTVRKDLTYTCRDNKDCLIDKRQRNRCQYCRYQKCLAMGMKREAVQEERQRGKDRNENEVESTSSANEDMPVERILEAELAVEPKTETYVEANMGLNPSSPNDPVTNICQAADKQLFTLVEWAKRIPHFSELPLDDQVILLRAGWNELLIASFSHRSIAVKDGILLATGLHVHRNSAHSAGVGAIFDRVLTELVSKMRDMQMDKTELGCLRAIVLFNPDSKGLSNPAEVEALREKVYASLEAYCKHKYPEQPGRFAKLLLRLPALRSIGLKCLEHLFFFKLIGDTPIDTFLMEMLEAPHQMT
Format: cell-based
Description: CV-1 cells were seeded at a density of 2,000,000 cells in a T175 flask with DMEM+10% charcoal double-stripped FBS and incubated at 37° C. in 5% CO2 for 18 h (O/N).
After 18 h of incubation, the medium in the T175 flask was changed with fresh DMEM+10% charcoal super-stripped serum. In a polypropylene tube, 2500 μL OptiMEM (Life Technologies, Cat #31985-062) was combined with expression plasmids for hFXR, hRXR, TK-ECRE-luc and pCMX-YFP. The tube was then briefly vortexed and incubated at room temperature for 5 minutes. Transfection reagent (X-tremeGENE HP from Roche, Cat #06 366 236 001) was added to the OptiMEM/plasmid mixture vortexed and incubated at room temperature for 20 minutes. Following incubation, the transfection reagent/DNA mixture complex was added to cells in the T175 flask and the cells were incubated at 37° C. in 5% CO2 for 18 h (O/N).
Compounds were serially diluted in DMSO and added to transfected CV-1 cells. The cells were then incubated for 18 hrs. The next day cells were lysed and examined for luminescence.

EC50, ≤ 250 nM:
CNC(=O)O[C@H]1CC[C@H](C(=O)N(C[C@H]2CC[C@H](c3ccc(N(C)C)nc3)CC2)c2cccc(-c3cnc(C4CC4)s3)c2)CC1 [Compound 1, trans-4-((3-(2-Cyclopropylthiazol-5-yl)phenyl)((trans-4-(6-(dimethylamino)pyridin-3-yl)cyclohexyl)methyl)carbamoyl)cyclohexyl methylcarbamate]
CNC(=O)O[C@H]1CC[C@H](C(=O)N(C[C@H]2CC[C@H](c3ccc(OC)c(C)c3)CC2)c2cccc(-c3cnc(C4CC4)s3)c2)CC1 [Compound 1.01, trans-4-((3-(2-Cyclopropylthiazol-5-yl)phenyl)((trans-4-(4-methoxy-3-methylphenyl)cyclohexyl)methyl)carbamoyl)cyclohexyl methylcarbamate]
CNC(=O)O[C@H]1CC[C@H](C(=O)N(CC23CCC(c4ccc(N(C)C)nc4)(CC2)CC3)c2cccc(-c3cnc(C4CC4)s3)c2)CC1 [Compound 1.02, 4-((3-(2-Cyclopropylthiazol-5-yl)phenyl)((4-(6-(dimethylamino)pyridin-3-yl)bicyclo[2.2.2]octan-1-yl)methyl)carbamoyl)cyclohexyl trans-methylcarbamate]
CNC(=O)O[C@H]1CC[C@H](C(=O)N(C[C@H]2CC[C@H](c3ccc4c(c3)c(F)nn4C)CC2)c2cccc(-c3cnc(C4CC4)s3)c2)CC1 [Compound 1.03, trans-4-((3-(2-Cyclopropylthiazol-5-yl)phenyl)((trans-4-(3-fluoro-1-methyl-1H-indazol-5-yl)cyclohexyl)methyl)carbamoyl)cyclohexyl methylcarbamate]
CNC(=O)O[C@H]1CC[C@H](C(=O)N(C[C@H]2CC[C@H](c3ccc(OC)c(C)c3)CC2)c2cccc(-c3cnn(C4CC4)c3)c2)CC1 [Compound 1.04, trans-4-((3-(1-Cyclopropyl-1H-pyrazol-4-yl)phenyl)((trans-4-(4-methoxy-3-methylphenyl)cyclohexyl)methyl)carbamoyl)cyclohexyl methylcarbamate]
CNC(=O)O[C@H]1CC[C@H](C(=O)N(CC23CCC(c4ccc(OC)c(C)c4)(CC2)CC3)c2cccc(-c3cnn(C4CC4)c3)c2)CC1 [Compound 1.05, 4-((3-(1-Cyclopropyl-1H-pyrazol-4-yl)phenyl)((4-(4-methoxy-3-methylphenyl)bicyclo[2.2.2]octan-1-yl)methyl)carbamoyl)cyclohexyl trans-methylcarbamate]
COc1ccc([C@H]2CC[C@H](CN(c3cccc(-c4cnn(C5CC5)c4)c3)C(=O)[C@H]3CC[C@H](OC(N)=O)CC3)CC2)cc1C [Compound 1.06, trans-4-((3-(1-Cyclopropyl-1H-pyrazol-4-yl)phenyl)((trans-4-(4-methoxy-3-methylphenyl)cyclohexyl)methyl)carbamoyl)cyclohexyl carbamate]
COC(=O)O[C@H]1CC[C@H](C(=O)N(C[C@H]2CC[C@H](c3ccc(OC)c(C)c3)CC2)c2cccc(-c3cnn(C4CC4)c3)c2)CC1 [Compound 1.07, trans-4-((3-(1-Cyclopropyl-1H-pyrazol-4-yl)phenyl)((trans-4-(4-methoxy-3-methylphenyl)cyclohexyl)methyl)carbamoyl)cyclohexyl methyl carbonate]
COc1ccc(C23CCC(CN(c4cccc(-c5cnn(C6CC6)c5)c4)C(=O)[C@H]4CC[C@H](OC(N)=O)CC4)(CC2)CC3)cc1C [Compound 1.08, 4-((3-(1-Cyclopropyl-1H-pyrazol-4-yl)phenyl)((4-(4-methoxy-3-methylphenyl)bicyclo[2.2.2]octan-1-yl)methyl)carbamoyl)cyclohexyl trans-carbamate]
CNC(=O)O[C@H]1CC[C@H](C(=O)N(C[C@H]2CC[C@H](c3ccc4c(c3)c(F)nn4C)CC2)c2cccc(-c3cnn(C4CC4)c3)c2)CC1 [Compound 1.09, trans-4-((3-(1-Cyclopropyl-1H-pyrazol-4-yl)phenyl)((trans-4-(3-fluoro-1-methyl-1H-indazol-5-yl)cyclohexyl)methyl)carbamoyl)cyclohexyl methylcarbamate]
CNC(=O)O[C@H]1CC[C@H](C(=O)N(C[C@H]2CC[C@H](c3ccc(OC)c(C)n3)CC2)c2cccc(-c3cnn(C(C)C)c3)c2)CC1 [Compound 1.10, trans-4-((3-(1-Isopropyl-1H-pyrazol-4-yl)phenyl)((trans-4-(5-methoxy-6-methylpyridin-2-yl)cyclohexyl)methyl)carbamoyl)cyclohexyl methylcarbamate]
CNC(=O)O[C@H]1CC[C@H](C(=O)N(C[C@H]2CC[C@H](c3ccc(OC)c(C)c3)CC2)c2cccc(-c3cc(C4CC4)ns3)c2)CC1 [Compound 2, trans-4-((3-(3-Cyclopropylisothiazol-5-yl)phenyl)((trans-4-(4-methoxy-3-methylphenyl)cyclohexyl)methyl)carbamoyl)cyclohexyl methylcarbamate]
CNC(=O)O[C@H]1CC[C@H](C(=O)N(C[C@H]2CC[C@H](c3ccc(OC)c(C)c3)CC2)c2cccc(-c3cnc(OC)s3)c2)CC1 [Compound 2.01, trans-4-(((trans-4-(4-Methoxy-3-methylphenyl)cyclohexyl)methyl)(3-(2-methoxythiazol-5-yl)phenyl)carbamoyl)cyclohexyl methylcarbamate]
CNC(=O)O[C@H]1CC[C@H](C(=O)N(C[C@H]2CC[C@H](c3ccc(OC)c(C)n3)CC2)c2cccc(-c3cnc(C4CC4)s3)c2)CC1 [Compound 2.02, trans-4-((3-(2-Cyclopropylthiazol-5-yl)phenyl)((trans-4-(5-methoxy-6-methylpyridin-2-yl)cyclohexyl)methyl)carbamoyl)cyclohexyl methylcarbamate]
CNC(=O)O[C@H]1CC[C@H](C(=O)N(CC23CCC(c4ccc(OC)c(C)c4)(CC2)CC3)c2cc(-c3cnc(C4CC4)s3)ccn2)CC1 [Compound 2.03, 4-((4-(2-Cyclopropylthiazol-5-yl)pyridin-2-yl)((4-(4-methoxy-3-methylphenyl)bicyclo[2.2.2]octan-1-yl)methyl)carbamoyl)cyclohexyl trans-methylcarbamate]
CNC(=O)O[C@H]1CC[C@H](C(=O)N(C[C@H]2CC[C@H](c3ccc(OC)c(C)c3)CC2)c2cccc(C#Cc3nccs3)c2)CC1 [Compound 2.04, trans-4-(((trans-4-(4-Methoxy-3-methylphenyl)cyclohexyl)methyl)(3-(thiazol-2-ylethynyl)phenyl)carbamoyl)cyclohexyl methylcarbamate]
CNC(=O)O[C@H]1CC[C@H](C(=O)N(CC23CCC(c4ccc(OC)c(C)c4)(CC2)CC3)c2cccc(C#Cc3nccs3)c2)CC1 [Compound 2.05, 4-(((4-(4-Methoxy-3-methylphenyl)bicyclo[2.2.2]octan-1-yl)methyl)(3-(thiazol-2-ylethynyl)phenyl)carbamoyl)cyclohexyl trans-methylcarbamate]
